pIC50: −log10 of the molar value. Bounds are passed on as bounds.

From US6239130A, “Phosphodiesterase 4-inhibiting diazepinoindolones” (Warner-Lambert Company, priority 1997, dated 2001) come the findings set out here.

The test system of the experiment is PDE4 enzyme of human origin. The experiment in a line: PDE4-inhibiting activity on an enzyme preparation obtained from the U937 cell line. The class given is biochemical. Here is the method:
In the case of the PDE4 enzymes, this value is compared with that of rolipram, a specific PDE4 inhibitor. […] Measurement of the enzyme activity of the different types of PDE, and especially of the PDE4 enzymes, is then carried out according to a method adapted from W. J. Thompson, ibidem.
For orientation: pIC50 means the IC50 on a negative log10 scale, so that one unit is a factor of ten. Low readings indicate a high IC50, high ones a low IC50. `Cc1cc2c3c(c1)C(c1ccccc1)=NC(n1cnc4ccccc4c1=O)C(=O)N3CC2` (stereo not shown) [Example 18, 3(9-Methyl-3-oxo-4H-quinazolin-3-yl)-1-phenyl-6,7-dihydro-3H-[1,4]diazepino[6,7,1-hi]indol-4one] gave a negative logarithm of the IC50 (pIC50) of 6.08.
The result for `Cc1cc2c3c(c1)C(c1ccccc1)=N[C@@H](n1c(C)nc4cnccc4c1=O)C(=O)N3CC2` [Example 19, (3S)-3-(2-Methyl-4-oxo-4H-pyrido[3,4-d]-pyrimidin-3-yl)-9-methyl-1-phenyl-6,7-dihydro-3H-[1,4]diazepino[6,7,1-hi]indol-1-one] reads 6.71.
As for `Cc1ccc2nc(C)n(C3N=C(c4ccccc4)c4cc([N+](=O)[O-])cc5c4N(CC5)C3=O)c(=O)c2c1` (stereo not shown) [Example 22, 3-(2,6-Dimethyl-4-oxo-4H-quinazolin-3-yl)-9-nitro-1-phenyl-6,7-dihydro-3H-[1,4]diazepino-[6,7,1-hi]indol-4-one], the pIC50 was 5.76.
With `Cc1ccc2c(=O)n(C3N=C(c4ccccc4)c4cc([N+](=O)[O-])cc5c4N(CC5)C3=O)c(C)nc2c1` (stereo not shown) [Example 23, 3-(2,7-Dimethyl-4-oxo-4H-quinazolin-3-yl)-9-nitro-1-phenyl-6,7-dihydro-3H-[1,4]diazepino-[6,7,1-hi]indol-4-one], the pIC50 was 6.30.
The result for `Cc1cccc2c(=O)n(C3N=C(c4ccccc4)c4cc([N+](=O)[O-])cc5c4N(CC5)C3=O)c(C)nc12` (stereo not shown) [Example 24, 3-(2,8-Dimethyl-4-oxo-4H-quinazolin-3-yl)-9-nitro-1-phenyl-6,7-dihydro-3H-[1,4]diazepino-[6,7,1-hi]indol-4-one] reads 4.51; that for `Cc1cc(C)c2nc(C)n(C3N=C(c4ccccc4)c4cc([N+](=O)[O-])cc5c4N(CC5)C3=O)c(=O)c2c1` (stereo not shown) [Example 25, 3(2,6,8-Trimethyl-4-oxo-4H-quinazolin-3-yl)-9-nitro-1-phenyl-6,7-dihydro-3H-[1,4]diazepino[6,7,1-hi]indol-4-one], less than 4.00.
For `Cc1cc(Br)c2nc(C)n(C3N=C(c4ccccc4)c4cc([N+](=O)[O-])cc5c4N(CC5)C3=O)c(=O)c2c1` (stereo not shown) [Example 26, 3-(8-Bromo-2,6-dimethyl-4-oxo-4H-quinazolin-3-yl)-9-nitro-1-phenyl-6,7-dihydro-3H-[1,4]diazepino-[6,7,1-hi]indol-4-one] the value was 4.04; for `Cc1nc2ccccc2c(=O)n1[C@@H]1N=C(c2ccccc2)c2cc(N)cc3c2N(CC3)C1=O` [Example 28, (3S)-9-Amino-3-(2-methyl-4oxo-4H-quinazolin-3-yl)-1-phenyl-6,7-dihydro-3H-[1,4]diazepino[6,7,1-hi]indol-4-one], 8.30.
The result for `COC(=O)c1ccc2c(=O)n(C3N=C(c4ccccc4)c4cc(N)cc5c4N(CC5)C3=O)c(C)nc2c1` (stereo not shown) [Example 28A, Methyl 3-(9-amino-4-oxo-1-phenyl-3,4,6,7-tetrahydro-[1,4]diazepino[6,7,1-hi]indol-3-yl)-2-methyl-4-oxo-3,4-dihydroquinazoline-7-carboxylate] reads 8.30; that for `COC(=O)c1ccc2c(=O)n(C3N=C(c4ccccc4)c4cc(N)cc5c4N(CC5)C3=O)c(C)nc2c1` (stereo not shown) [Example 28B], 8.52.
`COC(=O)c1ccc2c(=O)n(C3N=C(c4ccccc4)c4cc(N)cc5c4N(CC5)C3=O)c(C)nc2c1` (stereo not shown) [Example 28C]: the negative-log IC50 (pIC50) is 7.15.
The compound `Cc1nc2cc(C(=O)O)ccc2c(=O)n1C1N=C(c2ccccc2)c2cc(N)cc3c2N(CC3)C1=O` (stereo not shown) [Example 28D, 3-(9-Amino-4oxo-1-phenyl-3,4,6,7-tetrahydro[1,4]diazepino[6,7,1-hi]indol-3-yl)-2-methyl-4-oxo-3,4-dihydroquinazoline-7-carboxylic acid] had a pIC50 of 8.05.
The result for `Cc1nc2ccccc2c(=O)n1C1N=C(c2ccccc2)c2cc(N)cc3c2N(CC3)C1=O` (stereo not shown) [Example 29, 9-Amino-3-(2-methyl-4-oxo-4H-quinazolin-3-yl)-1-phenyl-6,7-dihydro-3H-[1,4]diazepino[6,7,1-hi]indol-4-one] reads 7.89; that for `Cc1cccc2nc(C)n(C3N=C(c4ccccc4)c4cc(N)cc5c4N(CC5)C3=O)c(=O)c12` (stereo not shown) [Example 30, 9-Amino-3-(2,5-dimethyl-4-oxo-4H-quinazolin-3-yl)-1-phenyl-6,7-dihydro-3H-[1,4]diazepino[6,7,1-hi]indol-4-one], 8.10.
For `Cc1ccc2nc(C)n(C3N=C(c4ccccc4)c4cc(N)cc5c4N(CC5)C3=O)c(=O)c2c1` (stereo not shown) [Example 31, 9-Amino-3-(2,6dimethyl-4-oxo-4H-quinazolin-^3-yl)-1-phenyl-6,7-dihydro-3H-[1,4]diazepino[6,7,1-hi]indol-4-one] the value was 7.06; for `Cc1cccc2c(=O)n(C3N=C(c4ccccc4)c4cc(N)cc5c4N(CC5)C3=O)c(C)nc12` (stereo not shown) [Example 32, 9-Amino-3-(2,8-dimethyl-4-oxo-4H-quinazolin-3-yl)-l1-phenyl-6,7-dihydro-3H-[1,4]diazepino[6,7,1-hi]indole-4-one], 7.26; for `Cc1cc(C)c2nc(C)n(C3N=C(c4ccccc4)c4cc(N)cc5c4N(CC5)C3=O)c(=O)c2c1` (stereo not shown) [Example 33, 9-Amino-3-(2,6,8-trimethyl-4-oxo-4H-quinazolin-3-yl)-1-phenyl-6,7-dihydro-3H-[1,4]diazepino[6,7,1-hi]indol-4-one], 6.81.
Take `Cc1nc2cnccc2c(=O)n1C1N=C(c2ccccc2)c2cc(N)cc3c2N(CC3)C1=O` (stereo not shown) [Example 34, 9-Amino-3-(2-methyl-4-oxo-4H-pyrido[3,4-d]pyrimidin-3-yl)-1-phenyl-6,7-dihydro-3H-[1,4]diazepino[6,7,1-hi]indol-4-one]: the pIC50 is 7.38.
Take `Cc1nc2cccc(Cl)c2c(=O)n1C1N=C(c2ccccc2)c2cc(N)cc3c2N(CC3)C1=O` (stereo not shown) [Example 34B, 9-Amino-3-(5-chloro-2-methyl-4-oxo-4H-quinazolin-3-yl)-1-phenyl-6,7-dihydro-3H-[1,4]diazepino[6,7,1-hi]indol-4-one]: the negative-log IC50 (pIC50) was 8.52.
For `Cc1cc2c3c(c1)C(c1ccccc1)=NC(n1c(C)nc4cc(C(=O)N[C@H](C(=O)O)C(C)C)ccc4c1=O)C(=O)N3CC2` (stereo partly shown) [Example 35, N-(2-methyl-3-(9-methyl-4-oxo-1-phenyl-3,4,6,7-tetrahydro[1,4]diazepino[6,7,1-hi]indol-3-yl)-4-oxo-3,4-dihydroquinazoline-7-carbonyl)valine] the value was 6.97; for `Cc1cc2c3c(c1)C(c1ccccc1)=NC(n1c(C)nc4cc(C(=O)N[C@@H](Cc5ccc(O)cc5)C(=O)O)ccc4c1=O)C(=O)N3CC2` (stereo partly shown) [Example 35A, N-(2-Methyl-3-(9-methyl-4-oxo-1-phenyl-3,4,6,7-tetrahydro[1,4]diazepino[6,7,1-hi]indol-3-yl)-4-oxo-3,4-dihydroquinazoline-7-carboxyl)tyrosine], 7.06; for `Cc1cc2c3c(c1)C(c1ccccc1)=NC(n1c(C)nc4cc(C(=O)N[C@@H](C)C(=O)O)ccc4c1=O)C(=O)N3CC2` (stereo partly shown) [Example 35B], 6.72.
On to `Cc1cc2c3c(c1)C(c1ccccc1)=NC(n1c(C)nc4cc(C(=O)N[C@@H](Cc5ccccc5)C(=O)O)ccc4c1=O)C(=O)N3CC2` (stereo partly shown) [Example 35C, N-(2-Methyl-3-(9-methyl-4-oxo-1-phenyl-3,4,6,7-tetrahydrol[1,4]diazepino[6,7,1-hi]indol-3-yl)-4-oxo-3,4-dihydroquinazoline-7-carboxyl)phenylalanine], for which the pIC50 was 6.95.
In the case of `Cc1cc2c3c(c1)C(c1ccccc1)=NC(n1c(C)nc4cc(C(=O)NCC(=O)O)ccc4c1=O)C(=O)N3CC2` (stereo not shown) [Example 35D, N-(2-Methyl-3-(9-methyl-4-oxo-1-phenyl-3,4,6,7-tetrahydro[1,4]diazepino[6,7,1-hi]indol-3-yl)-4-oxo-3,4-dihydroquinazoline-7-carboxyl)glycine], the pIC50 was 7.19.
`Cc1cc2c3c(c1)C(c1ccccc1)=NC(n1c(C)nc4cc(C(=O)N[C@@H](CC(C)C)C(=O)O)ccc4c1=O)C(=O)N3CC2` (stereo partly shown) [Example 35E, N-(2-Methyl-3-(9-methyl-4-oxo-1-phenyl-3,4,6,7-tetrahydro[1,4]diazepino[6,7,1-hi]indol-3-yl)-4-oxo-3,4-dihydroquinazoline-7-carboxyl)leucine] had a pIC50 of 7.09.
For `Cc1cc2c3c(c1)C(c1ccccc1)=NC(n1c(C)nc4cc(C(=O)N[C@@H](CC(=O)O)C(=O)O)ccc4c1=O)C(=O)N3CC2` (stereo partly shown) [Example 35F, N-(2-Methyl-3-(9-methyl-4-oxo-1-phenyl-3,4,6,7-tetrahydro[1,4]diazepino[6,7,1-hi]indol-3-yl)-4-oxo-3,4-dihydroquinazoline-7-carboxyl)aspartic acid] the value was 6.26; for `Cc1cc2c3c(c1)C(c1ccccc1)=NC(n1c(C)nc4cc(C(=O)N5CCC[C@H]5C(=O)O)ccc4c1=O)C(=O)N3CC2` (stereo partly shown) [Example 35G, N-(2-Methyl-3-(9-methyl-4-oxo-1-phenyl-3,4,6,7-tetrahydro[1,4]diazepino[6,7,1-hi]indol-3-yl)-4-oxo-3,4-dihydroquinazoline-7-carboxyl)proline], 6.54.
As for `Cc1cc2c3c(c1)C(c1ccccc1)=NC(n1c(C)nc4cc(C(=O)N[C@@H](CCC(=O)O)C(=O)O)ccc4c1=O)C(=O)N3CC2` (stereo partly shown) [Example 35H, N-(2-Methyl-3-(9-methyl-4-oxo-1-phenyl-3,4,6,7-tetrahydro[1,4]diazepino[6,7,1-hi]indol-3-yl)-4-oxo-3,4-dihydroquinazoline-7-carboxyl)glutamic acid], the negative-log IC50 (pIC50) was 6.66.
The result for `Cc1cc2c3c(c1)C(c1ccccc1)=NC(n1c(C)nc4cc(C(=O)N[C@@H](CCCCN)C(=O)O)ccc4c1=O)C(=O)N3CC2` (stereo partly shown) [Example 35I] reads 6.92; that for `CCOC(=O)[C@H](Cc1ccccc1)NC(=O)c1ccc2c(=O)n(C3N=C(c4ccccc4)c4cc(C)cc5c4N(CC5)C3=O)c(C)nc2c1` (stereo partly shown) [Example 36, Ethyl 2-{[2-methyl-3-(9-methyl-4-oxo-1-phenyl-3,4,6,7-tetrahydro[1,4]diazepino[6,7,1-hi]indol-3-yl)-4-oxo-3,4-dihydroquinazolin0e-7-carbonyl]amino}-3-phenyl-(L)-propionate], 6.51.
The result for `COc1ccc(C2CNC(=O)C2)cc1OC1CCCC1` (stereo not shown) [rolipram, reference compound] reads 6.10.
